Reference: patent publication US20200085789A1, “USE OF A PROTEASOME INHIBITOR FOR THE TREATMENT OF CENTRAL NERVOUS SYSTEM (CNS) CANCERS” (Celgene International II Sàrl, priority 2017, published 2020)

Experiments:
[1] = Adverse events and DLT, MRZ with TMZ and RT in newly diagnosed WHO Grade IV malignant glioma; type: in vivo, human
Protocol: The clinical trial was a dose-escalation study (Stage 1, MRZ+TMZ+RT or MRZ+TMZ) consisting of two arms—concomitant and adjuvant—in each, MRZ added to standard of care at increasing IV doses in a 3+3 design, and a dose expansion study at RP2D (Stage 2, RP2D MRZ+TMZ+RT followed by RP2D MRZ+TMZ) first with concomitant and then with adjuvant standard of care.
In the experimental Stage 1 Concomitant Treatment (MRZ+TMZ+RT) Drug MRZ dose ranges from 0.55 mg/m^2 to 1.0 mg/m^2 given IV over 10 minutes on days 1, 8, 15, 29, and 36 during concomitant treatment. MRZ dose ranges from 0.55 to 1.0 mg/m^2 given IV over 10 minutes on Days 1, 8, 15 every 28 days during adjuvant treatment. TMZ will be administered once daily, 7 days/week, for 6 weeks, starting on Day 1, at a dose of 75 mg/m^2 during concomitant treatment. TMZ will be administered once daily on days 1-5 every cycle (28 day cycles, up to 12 cycles), dose range 150 to 200 mg/m^2 during adjuvant treatment. Radiation (RT) will be administered once daily 5 days/week, for 30 doses over 6 weeks to a total dose of 60 Gy, staring on Day 1 during concomitant treatment. Patients who complete concomitant treatment may continue on to adjuvant treatment, in the adjuvant cohort RT and TMZ treatment is received outside of protocol therapy.
In the experimental Stage 2 dose expansion 18 additional evaluable patients were enrolled in a cohort in which concomitant treatment (MRZ+TMZ+RT) is followed by adjuvant treatment (MRZ+TMZ) to confirm the MTD for each treatment regime as determined in the dose-escalation (Stage 1), and to assess preliminary activity of the recommended Phase 2 dose (RP2D, 0.8 mg/m^2). Table 44 and Table 45 give the treatment parameters of the present study and demographics of study participants.
Methods: Patients enrolled in separate concomitant (TMZ+RT+MRZ at 0.55, 0.7, 0.8, and 1.0 mg/m^2 dose levels DL) and adjuvant (TMZ+MRZ) cohorts in 3+3 design, followed by dose-expansion at the RD (concomitant followed by adjuvant). MRZ (10 min IV infusion): Concomitant (42 days (D), on D1, 8, 15, 29, 36; Adjuvant (28D-cycle) on D1, 8, 15.
Outcome Measures: Primary Outcome Measures: (1) Determine MRZ maximum tolerated dose (MTD) and recommended phase 2 dose (RP2D) for both concomitant treatment (MRZ+TMZ+RT) and adjuvant treatment (MRZ+TMZ). Time Frame: 42-day concomitant treatment and 28-day Cycle 1 adjuvant treatment. Description: Assess dose-limiting toxicities (DLTs) in each dose-escalation arm.
Methods: Patients enrolled in separate concomitant (TMZ/RT+MRZ) and adjuvant (TMZ+MRZ) treatment cohorts in dose-escalation (3+3 design, MRZ at 0.55, 0.7, 0.8, and 1.0 mg/m^2), followed by dose-expansion at the RD in concomitant followed by adjuvant treatment. MRZ (10 min IV infusion): Concomitant Day 1, 8, 15, 29, 36; Adjuvant (28D-cycle) Day 1, 8, 15.

[2] = system: human glioblastoma (GBM) cell lines; settings: either of two GBM lines; cited from earlier work
[3] = Cohorts 1-3 0.55, 0.7, 0.8 mg/m^2 (21)
[4] = all grades, Cohort 2 0.7 mg/m^2 (9), concomitant and adjuvant combined
[5] = all grades, Cohort 3 0.8 mg/m^2 (6), concomitant and adjuvant combined
[6] = all grades, Cohort 4 1.0 mg/m^2 (12), concomitant and adjuvant combined
[7] = all grades, all dose-escalation cohorts 0.55-1.0 mg/m^2, N = 33, concomitant and adjuvant combined

Question: Which results are given for `C[C@@]12OC(=O)[C@]1([C@@H](O)[C@@H]1C=CCCC1)NC(=O)[C@@H]2CCCl` [MRZ, marizomib]?
Answer: Most common TEAEs (≥20% patients) ([1]; 33 patients, dose-escalation): fatigue, nausea, vomiting, hallucination, ataxia, headache; Anorexia, Total # Patients with Grade 3 Event [1]: 0; Ataxia, Total # Patients with Grade 3 Event [1]: 3; Confusion, Total # Patients with Grade 3 Event [1]: 2; Constipation, Total # Patients with Grade 3 Event [1]: 0; Diarrhea, Total # Patients with Grade 3 Event [1]: 0; Dizziness, Total # Patients with Grade 3 Event [1]: 0; Fatigue, Total # Patients with Grade 3 Event [1]: 2; Hallucination, Total # Patients with Grade 3 Event [1]: 0; Headache, Total # Patients with Grade 3 Event [1]: 2; Nausea, Total # Patients with Grade 3 Event [1]: 0; Vomiting, Total # Patients with Grade 3 Event [1]: 0; Anorexia, Total # Patients with Grade 3 Event [1, 3]: 0; Ataxia, Total # Patients with Grade 3 Event [1, 3]: 1; Confusion, Total # Patients with Grade 3 Event [1, 3]: 0; Constipation, Total # Patients with Grade 3 Event [1, 3]: 0; Diarrhea, Total # Patients with Grade 3 Event [1, 3]: 0; Dizziness, Total # Patients with Grade 3 Event [1, 3]: 0; Fatigue, Total # Patients with Grade 3 Event [1, 3]: 5; Hallucination, Total # Patients with Grade 3 Event [1, 3]: 1; Headache, Total # Patients with Grade 3 Event [1, 3]: 0; Nausea, Total # Patients with Grade 3 Event [1, 3]: 0; Vomiting, Total # Patients with Grade 3 Event [1, 3]: 1; patients with at least one Grade ≥3 TEAE ([1]; MRZ 0.7 mg/m^2, of 9 (Example 6)): 2; patients with Grade 3 TEAEs ([1]; MRZ 0.7 mg/m^2, of 9, as of Feb. 1, 2018): 4; patients with at least one Grade ≥3 TEAE ([1]; MRZ 0.8 mg/m^2, of 6 (Example 6)): 1; patients with Grade 3 TEAEs ([1]; MRZ 0.8 mg/m^2, of 6, as of Feb. 1, 2018): 2; patients with DLTs ([1]; MRZ 1.0 mg/m^2, concomitant and adjuvant): 5/12; patients with at least one Grade ≥3 TEAE ([1]; MRZ 1.0 mg/m^2, of 12): 11; tolerability ([1]; MRZ with SOC in ndGBM): well tolerated; Anorexia, incidence of treatment-related adverse event [1, 4]: 3; Ataxia, incidence of treatment-related adverse event [1, 4]: 1; Confusion, incidence of treatment-related adverse event [1, 4]: 4; Constipation, incidence of treatment-related adverse event [1, 4]: 6; Diarrhea, incidence of treatment-related adverse event [1, 4]: 2; Dizziness, incidence of treatment-related adverse event [1, 4]: 2; Fatigue, incidence of treatment-related adverse event [1, 4]: 8; Hallucination, incidence of treatment-related adverse event [1, 4]: 4; Headache, incidence of treatment-related adverse event [1, 4]: 3; Nausea, incidence of treatment-related adverse event [1, 4]: 4; Vomiting, incidence of treatment-related adverse event [1, 4]: 4; Anorexia, incidence of treatment-related adverse event [1, 5]: 2; Ataxia, incidence of treatment-related adverse event [1, 5]: 1; Confusion, incidence of treatment-related adverse event [1, 5]: 1; Constipation, incidence of treatment-related adverse event [1, 5]: 2; Diarrhea, incidence of treatment-related adverse event [1, 5]: 2; Dizziness, incidence of treatment-related adverse event [1, 5]: 1; Fatigue, incidence of treatment-related adverse event [1, 5]: 5; Hallucination, incidence of treatment-related adverse event [1, 5]: 2; Headache, incidence of treatment-related adverse event [1, 5]: 2; Nausea, incidence of treatment-related adverse event [1, 5]: 5; Vomiting, incidence of treatment-related adverse event [1, 5]: 4; Anorexia, incidence of treatment-related adverse event [1, 6]: 1; Ataxia, incidence of treatment-related adverse event [1, 6]: 4; Confusion, incidence of treatment-related adverse event [1, 6]: 3; Constipation, incidence of treatment-related adverse event [1, 6]: 4; Diarrhea, incidence of treatment-related adverse event [1, 6]: 1; Dizziness, incidence of treatment-related adverse event [1, 6]: 1; Fatigue, incidence of treatment-related adverse event [1, 6]: 8; Hallucination, incidence of treatment-related adverse event [1, 6]: 4; Headache, incidence of treatment-related adverse event [1, 6]: 4; Nausea, incidence of treatment-related adverse event [1, 6]: 5; Vomiting, incidence of treatment-related adverse event [1, 6]: 4; Anorexia, treatment-related adverse event, total in parentheses [1, 7]: Anorexia (8); Ataxia, treatment-related adverse event, total in parentheses [1, 7]: Ataxia (8); Confusion, treatment-related adverse event, total in parentheses [1, 7]: Confusion (9); Constipation, treatment-related adverse event, total in parentheses [1, 7]: Constipation (11); Diarrhea, treatment-related adverse event, total in parentheses [1, 7]: Diarrhea (7); Dizziness, treatment-related adverse event, total in parentheses [1, 7]: Dizziness (6); Fatigue, treatment-related adverse event, total in parentheses [1, 7]: Fatigue (26); Hallucination, treatment-related adverse event, total in parentheses [1, 7]: Hallucination (11); Headache, treatment-related adverse event, total in parentheses [1, 7]: Headache (10); Nausea, treatment-related adverse event, total in parentheses [1, 7]: Nausea (17); Vomiting, treatment-related adverse event, total in parentheses [1, 7]: Vomiting (12); RP2D / recommended dose (RD) of MRZ ([1]; with TMZ and RT (SOC), ndGBM): 0.8 mg/m^2; decrease of matrix invasion [2]: approximately 90%
